Test results: patent US20220142158A1, “ARTHROPOD CONTROL COMPOSITIONS” (FIRMENICH SA, priority 2019, published 2022)

Tested on: Aedes aegypti
Test: Warm Body Assay, in-vitro repulsion of mosquitoes
Settings: 100% at concentration 0
Method: The arthropod controlling effect according to the present invention is determined on mosquitoes using an adapted Warm Body assay as defined in Kröber T, Kessler S, Frei J, Bourquin M, Guerin P M. An in vitro assay for testing mosquito controlling compounds employing a warm body and carbon dioxide as a behavioral activator. J Am Mosq Control Assoc. 2010; 26:381-386.
The controlling effect according to the present invention is determined by testing the Warm Body assay against the yellow fever mosquito, Aedes aegypti Rockefeller strain. […] Observations of controlling efficacy were made on host-seeking females of uniform age, 5 to 10 days old selected as mentioned in the publication mentioned hereinabove. Tested hungry females had access to 10% sugar solution but were not blood-fed.
(§1) The published protocol has been adapted in not manually counting the landing mosquitoes but automatically using an automatic counting software, the switch from Anopheles gambiae to A. aegypti led to a decrease of mosquitoes' number placed in the tested cage due to the size difference (i.e. 30 mosquitoes instead of 50) and to an increase of lighting as A. aegypti is a diurnal mosquitoes (i.e. 150 lux instead of 4 lux).
The controlling efficacy in vitro was by an adapted Warm Body assay as defined in Kröber T, Kessler S, Frei J, Bourquin M, Guerin P M. An in vitro assay for testing mosquito controlling compounds employing a warm body and carbon dioxide as a behavioral activator. J Am Mosq Control Assoc. 2010; 26:381-386. The controlling effect according to the present invention is determined by testing the Warm Body assay against the yellow fever mosquito, A. aegypti Rockefeller strain.
as §1, with “Observations of controlling efficacy were made on host-seeking females of uniform age, 5 to 10 days old selected as mentioned in the publication mentioned hereinabove. Tested hungry females had access to 10% sugar solution but were not blood-fed. The” for “The”
In this in-vitro assay the number of A. aegypti landing on a warm body treated with the tested stimuli was measured in order to assess the repellency effect. […]

| SMILES | Mean ± SD of normalized repulsion of mosquitoes Aedes aegypti (concentration 0.016 mg/mL) | Mean ± SD of normalized repulsion of mosquitoes Aedes aegypti (concentration 0.08 mg/mL) | Mean ± SD of normalized repulsion of mosquitoes Aedes aegypti (concentration 0.4 mg/mL) | Mean ± SD of normalized repulsion of mosquitoes Aedes aegypti (concentration 2 mg/mL) | Mean ± SD of normalized repulsion of mosquitoes Aedes aegypti (concentration 10 mg/mL) |
| --- | --- | --- | --- | --- | --- |
| CCN(CC)C(=O)c1cccc(C)c1 [DEET, N,N-diethyl-3-methylbenzamide] | 90% ± 9% | 42% ± 7% | 11% ± 5% | 2% ± 1% | 3% ± 3% |
| CCCCN(CCC(=O)OCC)C(C)=O [IR3535, ethyl butylacetylaminopropionate] | 103% ± 20% | 108% ± 14% | 31% ± 5% | 22% ± 9% | 11% ± 2% |
